What was measured:
[1] = tested on: M-HeLa cells (human cervix epithelioid carcinoma); experiment: MTT cytotoxicity test, M-HeLa; format: cell-based
Summary of the method: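 Cells seeded at 5 × 10^3 per well and grown at 37 °C to monolayer, then exposed to compounds for 48 h. Viability by MTT (0.5 mg/mL, serum-free medium, 4 h, 37 °C), formazan dissolved in DMSO, OD 540 nm. IC50 estimated from triplicate experiments.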

DPPH antiradical assay = details: DPPH 100 μM
Method: Figure 4 Antioxidant potential of the tested compounds. (a) Inhibition of lipid peroxidation (LPO) in rat brain homogenates (2 mg/mL) initiated by Fe(II) ions (concentration of 500 µM) in the tested compounds at a concentration of 100 µM. (b) Concentration dependences of LPO inhibition for the studied compounds in the concentration range from 1 µM to 100 µM. (c) Oxygen Radical Absorbance Capacity (ORAC) of the studied compounds and ORAC values expressed as Trolox equivalent (TE). (d) DPPH antiradical activity of the compounds under study and DPPH values expressed as TE. The concentration of studied compounds and Trolox was 100 µM, the concentration of DPPH was 100 μM, and the concentration of AAPH was […]. Statistical significance was assessed using one-way ANOVA and Dunnett’s multiple comparison tests, where **** p < 0.0001, *** p < 0.001 and ** p < 0.01 vs. control. […]

HuTu 80 cells = experiment: Intracellular ROS level, CellROX Deep Red flow cytometry; format: cell-based, human; details: 48 h incubation, maximum concentration (IC50)

Question: With `CCOP(=O)(OCC)C(c1cc(C(C)(C)C)c(O)c(C(C)(C)C)c1)c1ccc(NC(=O)Nc2ccc([N+](=O)[O-])cc2)cc1NC(=O)Nc1ccc([N+](=O)[O-])cc1` (centres unmarked) [17b] as the compound, how does the IC50 ([1]; Homo sapiens, M-HeLa, MTT test, 24 h incubation per text, 48 h per method) read?
Answer: The IC50 was 24.3 ± 1.9 µM.

Question: And the “SI, selectivity index relative to Chang liver, M-HeLa” value ([1]; M-HeLa vs Chang liver)?
Answer: The value was about 3.

Question: What about the DPPH antiradical activity (DPPH antiradical assay; compound 100 µM) of the same compound?
Answer: The DPPH antiradical activity was 64.8 ± 0.7%.

Question: What about the “DPPH value (Trolox equivalent)” value (DPPH antiradical assay; compounds and Trolox 100 µM) of the same compound?
Answer: Its value is 1.27 Trolox equivalent.

Question: And the “Intracellular ROS level” value (HuTu 80 cells)?
Answer: The value was 400.2 ± 5.2%.

Reference: paper PMC10454409, “Hybrids of Sterically Hindered Phenols and Diaryl Ureas: Synthesis, Switch from Antioxidant Activity to ROS Generation and Induction of Apoptosis” (International Journal of Molecular Sciences, 2023)
